The test system of one test is HSF-1 in SKBr3 cells. Put plainly: Native gel electrophoresis, HSF-1 activation. To be noted: 3 h. In kind it is cell-based, human. As for the experimental part: FIG. 6. YK5 inhibits core biochemical functions of Hsp70s and disrupts the Hsp90/Hsp70 interaction. a) Refolding of denatured luciferase by Hsc70 and DJA2 at 30° C. was measured for the indicated times in the presence of YK5 (100 μM) or vehicle (left), or at 60 min in the presence of indicated concentrations of YK5 (right). b) Hsc70 ATPase rates were measured for reactions at 30° C. with the indicated combinations of Hsc70 and co-chaperones in the presence of vehicle (DMSO) or YK5 (100 μM). ADP production was monitored by thin layer chromatography separation of radiolabeled ADP from ATP and phosphorimaging analysis (lower). The data are consistent with those obtained from multiple repeat experiments (n≧2). c,d) SKBr3 cells were treated for 24 h with vehicle or indicated concentrations of YK5 (c) or for the indicated times with YK5 (10 μM) (d). Proteins isolated with anti-Hsp90 and Hsp70s antibodies (IP: Hsp90 or Hsp70), or present in the cell extract (Lysate) were analyzed by WB. Specificity of binding was tested with a control IgG. HC=heavy chain; DJA1 and Hdj1=Hsp40 isoforms. e) Unlike Hsp90 inhibitors, YK5 fails to activate HSF-1. […] Proteins were applied to a native gel and analyzed by immunoblotting. The data are consistent with those obtained from multiple repeat experiments (n≧3). f) YK5 was tested in the scanMAX screen (Ambit) against 359 kinases. […]

The subject of another test is MDA-MB-231 cells. As to the kind of experiment: Cell invasion assay (Boyden chamber Matrigel). The test is classed as cell-based, human. Particulars: 1 μM pre-treatment 24 h, 20 h migration. As for the experimental part: FIG. 12. YK5 affects the major hallmarks of cancer: inhibits proliferation and invasiveness and arrests cancer cells in the cell cycle. (a) The indicated cancer cells were incubated with increasing concentrations of inhibitors and growth over 72 h was assessed. Y-axis values below 0% represent cell death of the starting population. Drugs were assayed in triplicate. (b) Mice (n=5) bearing MDA-MB-468 subcutaneously (s.c.) xenografted tumors that reached a volume of approximately 100-200 mm^3, were administered i.t. YK5 or vehicle as described in Methods. Tumor volume (mm^3) was estimated from caliper measurements. (c) Cells were treated for 24 h with indicated concentrations of YK5. DNA content was analyzed by propidium iodide staining and flow cytometry (left), whereas proteins by western blotting (right). (d) Hsp70 client proteins isolated by YK55-beads from SKBr3 and MDA-MB-468 extracts (500 μg) were analyzed by western blotting. […] (e) MDA-MB-231 breast cancer cells were treated for 24 h with YK5 (1 μM) and protein extracts were subjected to immunoblotting (upper) or pre-treated for 24 h with vehicle or YK5, and viable cells able to migrate through Matrigel over a 20 h period were quantified and data graphed (lower). […]
Cell Invasion Assay. […] In summary, cells were stained with tryptan blue and counted manually with a hemacytometer. […] Cells in ten fields per membrane were counted at ×100 objective.

`C=CC(=O)Nc1cc(N)nc(Sc2c(OC)nc(N3CCN(C)CC3)nc2OC)n1` [YK5, N-(6-amino-2-(4,6-dimethoxy-2-(4-methylpiperazin-1-yl)pyrimidin-5-ylthio)pyrimidin-4-yl)acrylamide]: the HSF-1 activation result with HSF-1 in SKBr3 cells was “no effect”. For the same compound, the “invasion through Matrigel” value with MDA-MB-231 cells is on record as “inhibited the ability of MDA-MB-231 cells to invade through Matrigel”.

The values above are taken from patent publication US9567318B2, “Substituted pyrimidine compounds and uses thereof” (Memorial Sloan-Kettering Cancer Center, priority 2009, dated 2017).
